Data: ChEMBL document CHEMBL1201862, “PubChem BioAssay data set” (2004)
Active and inactive are the calls of the source.

Legend:
[1] = target: Ras and Rab interactor 1/Tyrosine-protein kinase ABL1 (Homo sapiens, UniProt P00519+Q13671); assay type: functional;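 note: biochemical TR-FRET dose-response test measuring inhibition of binding between Rin1 and Abl proteins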
Streptococcus = assay: GAS UMAA2166 growth inhibition – luminescence, BacTiterGlo, counter-screen for streptokinase expression inhibitor project, dose response (AID 1915); assay type: functional, organism-based;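 note: potency for reduction of bacterial viability or growth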
[2] = test system: Streptococcus sp. 'group A'; assay: Streptococcus pyogenes SK(-)GAS viability under kanamycin – luminescence, BacTiterGlo, confirmation, counter-screen for streptokinase expression inhibitor project, dose response (AID 1900); assay type: functional, organism-based
Vero [3] = assay: cells; assay type: functional; conditions: Chlorocebus sabaeus
Vero [4] = assay: cells; assay type: functional, cell-based; conditions: Chlorocebus sabaeus
[5] = target: T1, Short transient receptor potential channel 4 (Mus musculus, UniProt Q9QUQ5); assay: calcium entry via TRPC4 opening agents – cell-based, HEK293 TRPC4/mu-opioid, Fluo-4 calcium, dose response (AID 434937); assay type: functional
T1 sequence (Q9QUQ5 whole entry): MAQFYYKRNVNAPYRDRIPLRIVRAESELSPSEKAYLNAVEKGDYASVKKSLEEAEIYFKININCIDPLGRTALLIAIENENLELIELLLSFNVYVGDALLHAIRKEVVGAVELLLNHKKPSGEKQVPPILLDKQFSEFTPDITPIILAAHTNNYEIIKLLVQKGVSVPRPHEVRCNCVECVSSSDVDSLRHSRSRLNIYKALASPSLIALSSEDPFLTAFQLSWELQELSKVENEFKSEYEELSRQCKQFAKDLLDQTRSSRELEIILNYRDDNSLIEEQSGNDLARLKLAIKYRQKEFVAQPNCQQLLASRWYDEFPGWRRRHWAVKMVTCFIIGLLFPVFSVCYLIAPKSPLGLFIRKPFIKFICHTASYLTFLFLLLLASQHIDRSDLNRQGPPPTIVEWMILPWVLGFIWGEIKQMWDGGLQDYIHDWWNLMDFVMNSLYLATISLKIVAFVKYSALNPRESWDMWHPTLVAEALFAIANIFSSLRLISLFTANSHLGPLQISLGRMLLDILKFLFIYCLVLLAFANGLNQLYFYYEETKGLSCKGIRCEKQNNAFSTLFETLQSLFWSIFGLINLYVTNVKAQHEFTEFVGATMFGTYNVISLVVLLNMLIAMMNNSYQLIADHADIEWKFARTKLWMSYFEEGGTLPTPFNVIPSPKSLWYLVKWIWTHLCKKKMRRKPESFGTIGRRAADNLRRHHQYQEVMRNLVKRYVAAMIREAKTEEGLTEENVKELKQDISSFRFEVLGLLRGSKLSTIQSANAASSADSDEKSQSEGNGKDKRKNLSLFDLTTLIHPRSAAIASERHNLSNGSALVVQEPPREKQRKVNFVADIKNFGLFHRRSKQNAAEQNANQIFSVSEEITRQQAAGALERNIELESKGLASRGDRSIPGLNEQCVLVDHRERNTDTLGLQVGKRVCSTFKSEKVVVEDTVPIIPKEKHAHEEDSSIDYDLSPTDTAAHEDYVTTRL

Beta-galactosidase = Beta-galactosidase (Escherichia coli, UniProt Q8VNN2); assay: detection-enzyme interference by beta-gal modulators – biochemical, E. coli enzyme, set 3, artefact control for CCR6 antagonist project, dose response (AID 504712); assay type: functional
[6] = OVCAR-3 cell viability loss – plate reader, dry powder samples, PAX8 inhibitor project, dose response (AID 743044); assay type: functional, cell-based
[7] = OVCAR8 cell viability loss – plate reader, dry powder samples, PAX8 project, dose response (AID 743197); assay type: functional, cell-based; conditions: OVCAR-8
Prothrombin = Prothrombin (Homo sapiens, UniProt P00734); assay: Thrombin 1536 HTS Dose Response Confirmation. [Related pubchem assays: 1046 (Thrombin 1536 HTS; hits were confirmed in this assay)]; assay type: functional
[8] = HEK-293T cell viability reduction – luminescence, B-cell screen hits, cytotoxicity control for BCR NF-kB inhibitor project, dose response (AID 489021); assay type: functional, cell-based;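 note: HEK-293T cells carrying an NF-kB luciferase reporter; cells exposed to compound for about 14 hours before viability readout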
Beta Lactamase = Beta Lactamase (Pseudomonas aeruginosa, UniProt Q932Y6); assay: BLA reporter interference, concentration series – BLA reporter cells, FRET fluorescence, artefact control for TLR9-MyD88 binding inhibitor project, dose response (AID 588341); assay type: cell-based;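 note: cell based assay in CHO-K1 cells stably expressing beta-lactamase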
CHO = CHO cell viability loss, potency – luminescence, cytotoxicity control for TLR9-MyD88 binding inhibitor project, dose response (AID 588339); assay type: functional, cell-based, hamster; conditions: Cricetulus griseus;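 note: CHO cells stably coexpressing TLR9 and MyD88 fusions from primary screen; compound exposure lasted 48 hours before viability readout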
[9] = Luminescence-based cell-based high throughput dose response assay to identify activators of the DAF-12 from the parasite S. stercoralis (ssDAF-12).; assay type: functional
Paired box protein Pax-8 = Paired box protein Pax-8 (Homo sapiens, UniProt Q06710); assay: PAX8 transcriptional activity inhibition in RMG-I – RMG-I cells, luciferase, cherry-pick, dose response (AID 687027); assay type: functional, cell-based;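 note: luciferase reporter driven by Pax8 target thyroperoxidase promoter measured by SteadyGlo luminescence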
[10] = P. falciparum Dd2 growth inhibitors, dose response, SYBR Green, cherry-picked samples (AID 1159567); assay type: functional, cell-based

Chain of Ras and Rab interactor 1/Tyrosine-protein kinase ABL1 (P00519 whole entry): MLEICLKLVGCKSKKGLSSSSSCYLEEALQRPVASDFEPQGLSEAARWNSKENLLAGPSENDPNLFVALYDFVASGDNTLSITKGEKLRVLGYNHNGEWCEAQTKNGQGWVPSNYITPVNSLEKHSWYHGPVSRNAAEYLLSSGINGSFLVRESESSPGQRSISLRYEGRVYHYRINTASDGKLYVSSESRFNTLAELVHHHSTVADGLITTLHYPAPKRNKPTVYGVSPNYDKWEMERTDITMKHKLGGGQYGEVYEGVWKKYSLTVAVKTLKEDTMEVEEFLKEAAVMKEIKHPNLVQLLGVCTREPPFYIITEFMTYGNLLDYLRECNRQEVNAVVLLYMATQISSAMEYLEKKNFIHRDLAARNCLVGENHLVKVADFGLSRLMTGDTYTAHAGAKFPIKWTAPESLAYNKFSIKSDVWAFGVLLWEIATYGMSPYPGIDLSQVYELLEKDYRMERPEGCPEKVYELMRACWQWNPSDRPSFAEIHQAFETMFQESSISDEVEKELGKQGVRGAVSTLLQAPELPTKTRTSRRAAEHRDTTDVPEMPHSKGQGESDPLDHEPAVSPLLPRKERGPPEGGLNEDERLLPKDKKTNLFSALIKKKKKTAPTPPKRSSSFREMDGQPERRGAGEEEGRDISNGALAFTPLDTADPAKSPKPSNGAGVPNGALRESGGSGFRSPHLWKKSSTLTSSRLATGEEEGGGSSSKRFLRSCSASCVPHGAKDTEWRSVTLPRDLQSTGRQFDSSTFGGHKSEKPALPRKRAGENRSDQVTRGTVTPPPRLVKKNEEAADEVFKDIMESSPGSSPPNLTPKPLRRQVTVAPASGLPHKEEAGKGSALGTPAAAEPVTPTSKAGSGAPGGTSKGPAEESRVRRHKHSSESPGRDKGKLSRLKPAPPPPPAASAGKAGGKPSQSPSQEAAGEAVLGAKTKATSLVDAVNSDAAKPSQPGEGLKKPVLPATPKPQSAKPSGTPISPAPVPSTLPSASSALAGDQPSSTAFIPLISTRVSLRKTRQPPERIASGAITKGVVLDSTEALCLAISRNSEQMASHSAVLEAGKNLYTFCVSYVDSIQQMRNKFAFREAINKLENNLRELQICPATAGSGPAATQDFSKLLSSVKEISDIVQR
Chain of Ras and Rab interactor 1/Tyrosine-protein kinase ABL1 (Q13671 whole entry): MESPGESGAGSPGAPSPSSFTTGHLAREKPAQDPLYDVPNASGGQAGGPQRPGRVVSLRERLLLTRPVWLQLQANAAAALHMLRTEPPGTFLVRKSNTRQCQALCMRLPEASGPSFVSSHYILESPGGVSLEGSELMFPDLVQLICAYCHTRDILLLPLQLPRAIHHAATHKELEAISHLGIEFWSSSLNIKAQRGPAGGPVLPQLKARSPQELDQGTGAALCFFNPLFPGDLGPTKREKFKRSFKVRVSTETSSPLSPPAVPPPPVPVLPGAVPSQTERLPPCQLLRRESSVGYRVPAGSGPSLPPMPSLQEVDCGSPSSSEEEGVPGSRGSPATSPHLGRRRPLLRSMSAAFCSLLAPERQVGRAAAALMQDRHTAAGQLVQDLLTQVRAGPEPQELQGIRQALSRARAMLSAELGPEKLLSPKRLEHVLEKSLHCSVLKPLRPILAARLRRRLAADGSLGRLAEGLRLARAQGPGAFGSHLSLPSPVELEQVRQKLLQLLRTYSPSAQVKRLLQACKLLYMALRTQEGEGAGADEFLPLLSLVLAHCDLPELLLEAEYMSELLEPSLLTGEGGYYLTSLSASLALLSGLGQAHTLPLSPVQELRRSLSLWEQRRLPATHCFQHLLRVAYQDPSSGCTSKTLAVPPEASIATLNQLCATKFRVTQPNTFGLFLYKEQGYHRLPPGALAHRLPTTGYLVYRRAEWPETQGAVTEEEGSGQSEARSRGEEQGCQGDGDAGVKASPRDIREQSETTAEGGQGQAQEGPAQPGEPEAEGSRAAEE
Chain of Beta-galactosidase (Q8VNN2 whole entry): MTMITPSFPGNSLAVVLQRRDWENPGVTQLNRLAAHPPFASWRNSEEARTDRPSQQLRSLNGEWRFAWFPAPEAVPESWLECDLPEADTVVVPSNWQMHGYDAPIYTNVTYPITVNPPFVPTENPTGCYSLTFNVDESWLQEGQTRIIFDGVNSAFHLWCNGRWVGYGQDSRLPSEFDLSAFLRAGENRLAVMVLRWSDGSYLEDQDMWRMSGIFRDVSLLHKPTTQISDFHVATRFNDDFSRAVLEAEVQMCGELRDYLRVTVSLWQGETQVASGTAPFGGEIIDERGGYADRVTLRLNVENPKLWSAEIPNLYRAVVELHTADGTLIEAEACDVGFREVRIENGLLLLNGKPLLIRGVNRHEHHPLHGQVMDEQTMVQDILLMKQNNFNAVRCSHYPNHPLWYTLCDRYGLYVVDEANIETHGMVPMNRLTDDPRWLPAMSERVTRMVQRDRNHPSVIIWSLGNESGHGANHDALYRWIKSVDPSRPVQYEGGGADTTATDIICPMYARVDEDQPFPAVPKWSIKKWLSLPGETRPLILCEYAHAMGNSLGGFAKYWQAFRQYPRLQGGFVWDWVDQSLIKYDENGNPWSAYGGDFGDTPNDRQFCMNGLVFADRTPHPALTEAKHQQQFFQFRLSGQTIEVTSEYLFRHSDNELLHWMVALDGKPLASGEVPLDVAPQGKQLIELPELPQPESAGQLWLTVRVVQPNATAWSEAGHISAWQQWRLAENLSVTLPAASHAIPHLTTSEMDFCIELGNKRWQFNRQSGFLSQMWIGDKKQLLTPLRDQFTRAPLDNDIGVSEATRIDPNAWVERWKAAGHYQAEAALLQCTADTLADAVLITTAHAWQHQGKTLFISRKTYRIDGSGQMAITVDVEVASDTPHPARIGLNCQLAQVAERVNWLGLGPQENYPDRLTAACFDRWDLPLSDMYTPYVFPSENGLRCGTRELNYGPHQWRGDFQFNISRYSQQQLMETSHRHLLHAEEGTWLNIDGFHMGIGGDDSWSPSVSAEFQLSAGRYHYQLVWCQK
Chain of Beta Lactamase (Q932Y6 whole entry, the tested form may be a part): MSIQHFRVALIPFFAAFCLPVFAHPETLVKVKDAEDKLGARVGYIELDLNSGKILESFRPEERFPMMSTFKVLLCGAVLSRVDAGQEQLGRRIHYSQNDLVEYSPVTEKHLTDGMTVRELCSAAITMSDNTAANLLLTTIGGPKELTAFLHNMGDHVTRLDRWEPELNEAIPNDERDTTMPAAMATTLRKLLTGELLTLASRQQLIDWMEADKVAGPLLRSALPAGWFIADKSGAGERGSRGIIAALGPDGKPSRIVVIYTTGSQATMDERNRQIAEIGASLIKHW
Chain of Paired box protein Pax-8 (Q06710 whole entry): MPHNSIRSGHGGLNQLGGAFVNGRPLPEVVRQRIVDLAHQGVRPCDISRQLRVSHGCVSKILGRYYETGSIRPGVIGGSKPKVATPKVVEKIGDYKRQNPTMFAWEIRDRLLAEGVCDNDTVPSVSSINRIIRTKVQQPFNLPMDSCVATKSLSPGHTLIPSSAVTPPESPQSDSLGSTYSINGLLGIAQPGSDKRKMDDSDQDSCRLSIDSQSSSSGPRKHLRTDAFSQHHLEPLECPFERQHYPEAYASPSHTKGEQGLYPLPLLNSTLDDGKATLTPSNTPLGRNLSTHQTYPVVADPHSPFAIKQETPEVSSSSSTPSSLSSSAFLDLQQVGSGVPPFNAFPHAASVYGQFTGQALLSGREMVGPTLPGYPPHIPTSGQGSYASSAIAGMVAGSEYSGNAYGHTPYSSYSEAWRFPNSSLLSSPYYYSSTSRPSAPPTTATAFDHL

CC12CCC(=O)N1C(C(=O)N1CCN(S(=O)(=O)c3ccc(Br)cc3Cl)CC1)CS2 (stereo not given)
IC50 [1]: 17 µM (inactive)

CC(=O)c1cccc(-c2ccnc3c2CC(C(=O)NCc2ccc(N4CCN(C)CC4)cc2)O3)c1 (stereo not given)
IC50 [1]: 29.9 µM (inactive)

Cc1ccc(C(=O)NNC(=S)NC(=O)c2ccccc2)cc1
EC50 (Streptococcus): 4.44 µM (active)
EC50 [2]: 1.47 µM (active)
CC50 (Vero [3]): 24.8 µM (active)
IC50 (Vero [4]): 12 µM (active)
EC50 [5]: 2.66 µM (active)
IC50 (Beta-galactosidase): > 66.6 µM (inactive)

C[C@@H]1CN([C@H](C)CO)C(=O)c2cc(NC(=O)Cc3ccccc3)ccc2O[C@@H](C)CCCCO[C@H]1CN(C)Cc1ccc(Cl)c(Cl)c1
AC50 [6]: 28.2 µM (active)
AC50 [7]: > 70 µM (inactive)

COc1ccc(CC(=O)Oc2ccc(C)cc2Br)cc1OC
IC50 [1]: 6.87 µM (active)

Cc1ccc2nc(NC(=O)CSCC(=O)OCC(=O)c3ccc(Br)cc3)sc2c1
IC50 (Prothrombin): 39.3 nM (active)
IC50 [8]: > 80 µM (inactive)

Cn1c(-c2c(N)n(-c3ccccc3)c3nc4ccccc4nc23)nc2ccccc21
IC50 (Beta Lactamase): 3.85 µM (active)
IC50 (CHO): > 49.7 µM (inactive)

Nc1ccccc1C=C1Cc2ccccc2C1=O
IC50 [9]: > 67.6 µM (inactive)

CC(C)CC#Cc1ccc2c(c1)O[C@H](CN(C)S(=O)(=O)c1ccc(F)cc1)[C@@H](C)CN([C@@H](C)CO)S2(=O)=O
AC50 (Paired box protein Pax-8): 10.3 µM (active)
AC50 [10]: 5.25 µM (active)
AC50 [6]: 49.7 µM (active)
AC50 [7]: > 70 µM (inactive)
